Results on 51 compounds are retold here after patent publication US8697694B2, “Substituted pyridine and pyrimidine derivatives and their use in treating viral infections” (priority 2008, dated 2014).

Some results are limits rather than exact numbers.

The first assay has as its system HCV replicon cells. The assay can be described thus: Cell-based HCV replicon assay (replicon RNA level by real time PCR, Taqman). The following applies: HCV replicon cells, replicon RNA level by real time PCR, harvested day 3; read-out: EC90 (μM) range. The procedure, abridged: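 Readout: ΔCT between NS5B replicon RNA and GAPDH by real-time RT-PCR in lysates harvested on day 3, fitted sigmoidally; EC50 at ΔCT=1, EC90 at ΔCT=3.2. Compounds tested at ten 2-fold dilutions from 25 μM to 1 μM start, 10% FBS, 0.5% DMSO.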
For the compound `Cc1nc(NCC2CC2)nc(N[C@@H]2C[C@H](C(C)O)[C@@H](O)[C@H]2O)c1-c1nc2ccccc2s1` (single isomer, unassigned) [Example 1647], the EC90 lay in the range of 0.5 to 5 µM.

The same assay, now with this note: Hepatitis C virus, 72 h, HCV replicon cells, harvested day 3, replicon RNA by real time PCR; given as number; read-out: EC90 (μM) range.
As to `Cc1nc(NCC2CC2)nc(N[C@@H]2C[C@H](CO)[C@@H](O)[C@H]2O)c1-c1cc2cc(OCC(F)(F)F)nc(C)c2o1` [Example 47], the EC90 worked out at 0.4 µM.
On the same count and under the same terms, the figure for `Cc1nc(NCC(F)(F)F)nc(N[C@@H]2CC[C@@H](O)C2)c1-c1nc2ccccc2s1` [Example 54] is 1 µM.

The same assay, now with this note: Hepatitis C virus, 72 h, HCV replicon cells, harvested day 3, replicon RNA by real time PCR; reported as range class; read-out: EC90 (μM) range.
Turning to `CCCOCCNc1nc(C)c(-c2nc3ccccc3s2)c(N[C@@H]2C[C@H](CO)[C@@H](O)[C@H]2O)n1` [Example 227], the EC90 is under 0.5 µM.
Same read-out and setting: then `Nc1nc(Cl)c(-c2cccc(N3CCOCC3)n2)c(N[C@@H]2C[C@H](CO)[C@@H](O)[C@H]2O)n1` [Example 158], with over 5 µM; and `Cc1ccc2oc(-c3c(Cl)nc(N)nc3N[C@@H]3C[C@H](CO)[C@@H](O)[C@H]3O)nc2c1` [Example 193], with over 5 µM.
For the compound `Nc1nc(Cl)c(-c2cc3cnccc3o2)c(N[C@@H]2C[C@H](CO)[C@@H](O)[C@H]2O)n1` [Example 8], the EC90 lay in the range of 0.5 to 5 µM.
Take `Nc1nc(Cl)c(-c2cncs2)c(N[C@@H]2C[C@H](CO)[C@@H](O)[C@H]2O)n1` [Example 163]: the EC90 was over 5 µM.
Same read-out and setting: the figure for `CC(=O)c1ccc(-c2c(Cl)nc(N)nc2N[C@@H]2C[C@H](CO)[C@@H](O)[C@H]2O)s1` [Example 154] is over 5 µM; for `Nc1nc(Cl)c(-c2nc3c(F)cc(F)cc3s2)c(N[C@@H]2C[C@H](CO)[C@@H](O)[C@H]2O)n1` [Example 189] it is 0.5 to 5 µM.
`COC[C@H]1C[C@@H](Nc2nc(N(C)C)nc(C)c2-c2nc3ccccc3s2)[C@H](O)[C@@H]1O` [Example 123]: the EC90 was over 5 µM.
Same read-out and setting: the figure for `COc1ccc2nc(-c3c(Cl)nc(N)nc3N[C@@H]3C[C@H](CO)[C@@H](O)[C@H]3O)sc2c1` [Example 181] is under 0.5 µM; for `NC(=O)c1ccc2oc(-c3c(Cl)nc(N)nc3N[C@@H]3C[C@H](CO)[C@@H](O)[C@H]3O)cc2c1` [Example 173] it is over 5 µM; for `Nc1nc(Cl)c(-c2ccc(C=O)s2)c(N[C@@H]2C[C@H](CO)[C@@H](O)[C@H]2O)n1` [Example 155] it is over 5 µM.

The same assay, now with this note: Hepatitis C virus, 72 h, HCV replicon cells, harvested on day 3, replicon RNA by real time PCR; calculated EC90 reported as range class; read-out: EC90 (μM) range.
Consider `Cc1cc(CNc2nc(C)c(-c3nc4ccccc4s3)c(N[C@@H]3C[C@H](CO)[C@H]4OC(C)(C)O[C@H]43)n2)no1` [Example 491], for which the EC90 is 0.5 to 5 µM.
As to `COc1ccc(CNc2nc(C)c(-c3nc4ccccc4s3)c(N[C@@H]3C[C@H](CO)[C@@H](O)[C@H]3O)n2)cc1OC` [Example 709], the EC90 was under 0.5 µM.
With `OC[C@H]1C[C@@H](Nc2nc(NCc3ccccc3F)nc(Cl)c2-c2nc3ccccc3s2)[C@H](O)[C@@H]1O` [Example 232], the EC90 was under 0.5 µM.
On to `Cc1cc(CNc2nc(C)c(-c3nc4ccccc4s3)c(N[C@@H]3C[C@H](CO)[C@@H](O)[C@H]3O)n2)on1` [Example 493], for which the 90% effect concentration (EC90) was under 0.5 µM.
Turning to `Cc1nc(NCc2ccccc2C(F)(F)F)nc(N[C@@H]2C[C@H](CO)[C@@H](O)[C@H]2O)c1-c1nc2ccccc2s1` [Example 239], the EC90 is 0.5 to 5 µM.

The assay is the same for the next values; noted with them: Hepatitis C virus, 72 h, HCV replicon cells, replicon RNA level by real time PCR (Taqman), harvested on day 3; calculated EC90 reported as range class; read-out: EC90 (μM) range.
With `Cc1nc(NCc2cc(Cl)cc(Cl)c2)nc(N[C@@H]2C[C@H](CO)[C@@H](O)[C@H]2O)c1-c1nc2ccccc2s1` [Example 1114], the EC90 was 0.5 to 5 µM.
Turning to `Cc1nc(NCc2cccc(N(C)C)c2)nc(N[C@@H]2C[C@H](CO)[C@@H](O)[C@H]2O)c1-c1nc2ccccc2s1` [Example 1106], the EC90 was under 0.5 µM.
With `COc1ccccc1Nc1nc(C)c(-c2nc3ccccc3s2)c(N[C@@H]2C[C@H](CO)[C@@H](O)[C@H]2O)n1` [Example 1123], the EC90 was 0.5 to 5 µM.
Still for that read-out and setting: then `Cc1nc(NCc2ccccc2)nc(N[C@@H]2C[C@H](CO)[C@@H](O)[C@H]2O)c1-c1nc2cnccc2s1` [Example 540], with under 0.5 µM; and `Cc1nc(Nc2cccc(OC(F)(F)F)c2)nc(N[C@@H]2C[C@H](CO)[C@@H](O)[C@H]2O)c1-c1nc2ccccc2s1` [Example 1237], with over 5 µM.
For `CNc1ccc2oc(-c3c(C)nc(NCC4CC4)nc3N[C@@H]3C[C@H](CO)[C@@H](O)[C@H]3O)nc2c1` [Example 1065], the EC90 is 0.5 to 5 µM.
In the case of `Cc1nc(Nc2ccccc2OC(F)(F)F)nc(N[C@@H]2C[C@H](CO)[C@@H](O)[C@H]2O)c1-c1nc2ccccc2s1` [Example 1236], the EC90 is over 5 µM.
In the case of `COc1cccc2sc(-c3c(C)nc(NCC(F)(F)F)nc3N[C@@H]3C[C@H](CO)[C@@H](O)[C@H]3O)nc12` [Example 1070], the EC90 was 0.5 to 5 µM.
Turning to `Cc1nc(NCC(C)(C)O)nc(N[C@@H]2C[C@H](CO)[C@@H](O)[C@H]2O)c1-c1nc2ccccc2s1` [Example 1014], the EC90 was under 0.5 µM.
Same read-out and setting: the figure for `CNc1ccc2oc(-c3c(C)nc(NCC(F)(F)F)nc3N[C@@H]3C[C@H](CO)[C@@H](O)[C@H]3O)nc2c1` [Example 1064] is over 5 µM.
With `CCOCCNc1nc(C)c(-c2nc3ccccc3s2)c(N[C@@H]2C[C@H](C(F)F)[C@@H](O)[C@H]2O)n1` [Example 1019], the EC90 was under 0.5 µM.
As for `Cc1ccc([C@@H](C)Nc2nc(C)c(-c3nc4cnccc4s3)c(N[C@@H]3C[C@H](CO)[C@@H](O)[C@H]3O)n2)cc1` [Example 544], the EC90 is under 0.5 µM.
As for `Cc1nc(Nc2ccccc2OCc2ccccc2)nc(N[C@@H]2C[C@H](CO)[C@H]3OC(C)(C)O[C@H]32)c1-c1nc2ccccc2s1` [Example 1124], the EC90 was over 5 µM.
As to `CCOCCNc1nc(C)c(-c2nc3cc(OC(F)F)c(OC(F)F)cc3s2)c(N[C@@H]2C[C@H](CO)[C@@H](O)[C@H]2O)n1` [Example 1002], the EC90 was 0.5 to 5 µM.
Take `COc1cc2cc(-c3c(C)nc(NCC4CC4)nc3N[C@@H]3C[C@H](CO)[C@@H](O)[C@H]3O)oc2c(OC)n1` [Example 1127]: the 90% effect concentration (EC90) is under 0.5 µM.
Turning to `Cc1nc(N[C@H](C)c2ccc(F)cc2)nc(N[C@@H]2C[C@H](CO)[C@@H](O)[C@H]2O)c1-c1nc2cnccc2s1` [Example 1311], the EC90 was under 0.5 µM.

Staying with this assay, now noted: Hepatitis C virus, 72 h, HCV replicon cells, replicon RNA level by real time PCR, harvested day 3; read-out: EC90 (μM) range.
Regarding `CCCc1nccc2sc(-c3c(C)nc(N[C@H](C)C(F)(F)F)nc3N[C@@H]3C[C@H](CO)[C@@H](O)[C@H]3O)nc12` [Example 1380], the EC90 was under 0.5 µM.
Take `Cc1nc(N[C@H](C)c2ccc(OC(F)(F)F)cc2)nc(N[C@@H]2CC[C@@H](O)[C@@]2(C)O)c1-c1nc2cnccc2s1` [Example 1542]: the EC90 was 0.5 to 5 µM.
On to `COCCNc1nc(C)c(-c2cc3ccccc3s2)c(N[C@@H]2C[C@H](CO)[C@@H](O)[C@H]2O)n1` [Example 1601], for which the EC90 is over 5 µM.
With `Cc1nc(N[C@H](C)C2CC2)nc(N[C@@H]2CC[C@@H](O)[C@@]2(C)O)c1-c1nc2c(C)nccc2s1` [Example 1817], the EC90 was under 0.5 µM.
Take `Cc1nc(NCCc2ccc(Cl)c(Cl)c2)nc(N[C@@H]2C[C@H](CO)[C@@H](O)[C@H]2O)c1-c1nc2cnccc2s1` [Example 1914]: the 90% effect concentration (EC90) is under 0.5 µM.
Consider `Cc1nc(NCC(F)(F)F)nc(N[C@@H]2C[C@H](C(O)c3nccs3)[C@@H](O)[C@H]2O)c1-c1nc2ccccc2s1` (stereo partly drawn) [Example 1639], for which the concentration for an effect of 90% (EC90) was under 0.5 µM.
Consider `Cc1nc(NCC(F)(F)F)nc(N[C@@H]2C[C@H](CO)[C@@H](O)[C@H]2O)c1-c1nc2ccccc2o1` [Example 1509], for which the EC90 was under 0.5 µM.
With `Cc1nc(NC2CCC2)nc(N[C@@H]2C[C@H](CO)[C@@H](O)[C@H]2O)c1-c1nc2ccccc2s1` [Example 1503], the EC90 lay within 0.5 to 5 µM.
`Cc1nc(N[C@@H](c2ccc(OC(F)(F)F)cc2)C(F)(F)F)nc(N[C@@H]2C[C@H](CO)[C@@H](O)[C@H]2O)c1-c1nc2c(C)nccc2s1` [Example 1546]: the concentration for an effect of 90% (EC90) is under 0.5 µM.
With `Cc1nc(N[C@H](c2ccc(C(F)(F)F)cc2)C(F)(F)F)nc(N[C@@H]2C[C@H](CO)[C@@H](O)[C@H]2O)c1-c1nc2c(C)nccc2s1` [Example 1531], the EC90 was over 5 µM.
As for `Cc1nc(N[C@H](C)c2ccc(C(F)(F)F)cc2)nc(N[C@@H]2C[C@H](CO)[C@@H](O)[C@H]2O)c1-c1nc2c(C)nccc2s1` [Example 1356], the 90% effect concentration (EC90) was under 0.5 µM.
The same measure, in the same setting: then `Cc1nc(NCC(F)(F)F)nc(N[C@@H]2CC[C@@H](O)C2O)c1-c1nc2ccccc2s1` (stereo partly drawn) [Example 1625], with 0.5 to 5 µM.
On to `Cc1nc(N[C@@H](c2ccc(-n3cccn3)cc2)C(F)(F)F)nc(N[C@@H]2C[C@H](CO)[C@@H](O)[C@H]2O)c1-c1nc2c(C)nccc2s1` [Example 1541], for which the EC90 is under 0.5 µM.
The same measure, in the same setting: the figure for `CCc1nccc2sc(-c3c(C)nc(NCC(F)(F)F)nc3N[C@@H]3C[C@H](CO)[C@@H](O)[C@H]3O)nc12` [Example 1340] is under 0.5 µM; for `Cc1ccsc1CCNc1nc(C)c(-c2nc3cnccc3s2)c(N[C@@H]2C[C@H](CO)[C@@H](O)[C@H]2O)n1` [Example 1707] it is under 0.5 µM.
As for `Cc1nc(NCC(F)(F)F)nc(N[C@@H]2C[C@H](CNS(=O)(=O)CC(F)(F)F)[C@@H](O)[C@H]2O)c1-c1nc2ccccc2s1` [Example 1520], the concentration for an effect of 90% (EC90) lay within 0.5 to 5 µM.

One may read the EC90 as the concentration at which the effect reaches the 90% level.
